{"source": "patent US8680113B2", "about": "“BMI-1 protein expression modulators” (PTC Therapeutics, Inc., priority 2008, dated 2014)"}
{"tested_on": "Bmi-1", "assay": "Sandwich ELISA Assay (Bmi-1 ELISA in HT-1080 cells)", "type": "cell-based, human", "description": "Cell Seeding and Compound Treatment (Day 1):\nHT-1080 cells were seeded at 8000 cells/well (50 uL) in 96-well tissue culture plates. After the cells become adherent (3-4 hours), 2× diluted stocks of compounds in 50 uL DMEM containing 1% DMSO (final DMSO concentration was 0.5%) were added and the plates were incubated at 37° C. under 5% CO2 for 40-48 hours\nELISA Plate First Antibody Preparation (Day 2):\nThe First Antibody (Millipore Mouse, monoclonal to mouse Bmi-1, clone F6, catalog #05-637) diluted to 2 ug/mL in PBS was added (100 uL) to each well of a Nunc MaxiSorp 96-well ELISA plate. The plate was covered with a plate seal and allowed to stand overnight.\nCell Lysate Preparation (Day 3):\nFresh 1× Lysis buffer was prepared on the day of the assay as follows: 1 mM EDTA, 150 mM NaCl, 0.5% Triton-X 100, 10 mM NaF, 20 mM B-Glycerophosphate, 1 mM DTT (in PBS, pH 7.2-7.4) and 1×HALT protease inhibitor cocktail (Pierce #78410).\n1× Lysis Buffer (40 uL) was added to each well and the plate was shaken for 5-10 minutes on an orbital shaker to allow cell lysis, then Diluent (1% BSA in PBS in 0.5% NP40) (100 uL) was added to each well.\nThe Bmi-1 standard curve was prepared in Diluent at the following concentrations of protein: 8000, 4000, 2000, 1000, 500, 250, 125, 0 pg/mL The Bmi-1 Recombinant Protein Standard (Novus Biologicals PCGF4 Recombinant Protein (P01), catalog #H00000648-P01) used in the standard curve was stored at −80° C., and on first thaw, diluted to 10 ug/uL in Blocking Buffer (1% BSA in PBS; BSA: Fisher Scientific Catalog #1600-100) before being aliquoted and refrozen at −80° C. Aliquots can be kept at 4° C. and reused after first thaw, but only for 1-2 weeks. The Bmi-1 Recombinant Protein Standard contains a GST-fusion tag and thus will show up on western blots around 70 Kda.\nThe prepared ELISA plate was washed 3× with Wash Buffer (0.05% Tween-20 in PBS). The final wash was removed from the plate and the plate was blotted dry on paper towels. Blocking Buffer (300 uL) (1% BSA in PBS) was added per well. The plate was covered with a plate seal and incubated at room temperature for 1 hour. The blocked plate was washed 3× with Wash Buffer, the final wash was removed and the plate was blotted dry on paper towels. The previously prepared samples and standards were added (at 100 uL/well) and the plate was covered with a plate seal and incubated at 4° C. overnight.\nThe prepared ELISA plate was removed from 4° C., incubated at room temperature for 30 minutes, then washed and blotted dry as previously described for Day 3. The Second Antibody (Cell Signaling Rabbit anti-Bmi-1, Cat#2830) diluted to 1:600 in Blocking Buffer was added (100 uL) to each well, except as needed for background control wells. The plate was covered with a plate seal and incubated for 1.5 hrs at room temperature.\nThe ELISA plate was washed and blotted dry as previously described. The Third Antibody (Cell Signaling HRP conjugated anti-rabbit IgG (CellSignaling, Cat#:7074) diluted to 1:300 in Blocking Buffer was added (100 uL) to each well, except as needed for background control wells. The plate was incubated for 1 hr at room temperature.\nThe plate was washed and blotted dry as previously described, then prepared TMB substrate (TMB substrate kit, Pierce catalog #34021) (prepared by mixing kit reagents 1:1) (100 uL) was added per well. The plate was incubated for 20-30 minutes at room temperature in the dark, then Stop Solution (2 M sulfuric acid in water) (50 uL) was added per well. The plates were read at OD450 (experimental) and OD570 (reference).", "units": {"IC50": "µM"}}
{"molecule": "Cc1nc2ccc(Cl)cn2c1-c1csc(Nc2ccc(N(C)C)cc2)n1", "note": "[Cpd 58, N′-[4-(6-chloro-2-methylimidazo[1,2-a]pyridin-3-yl)-1,3-thiazol-2-yl]-N,N-dimethylbenzene-1,4-diamine]", "IC50": "< 0.5"}
{"molecule": "Cc1nc2ccccn2c1-c1csc(Nc2ccc(Br)cc2Cl)n1", "note": "[Cpd 200, N-(4-bromo-2-chlorophenyl)-4-(2-methylimidazo[1,2-a]pyridin-3-yl)-1,3-thiazol-2-amine]", "IC50": "< 0.5"}
{"molecule": "Cc1nc2ncccn2c1-c1ccnc(Nc2ccc(N(C)C)cc2)n1", "note": "[Cpd 43, N,N-dimethyl-N′-[4-(2-methylimidazo[1,2-a]pyrimidin-3-yl)pyrimidin-2-yl]benzene-1,4-diamine]", "IC50": "< 0.5"}
{"molecule": "CCCc1nc2ccccn2c1-c1csc(Nc2ccc(OC)c(Cl)c2)n1", "note": "[Cpd 172, N-(3-chloro-4-methoxyphenyl)-4-(2-propylimidazo[1,2-a]pyridin-3-yl)-1,3-thiazol-2-amine]", "IC50": "< 0.5"}
{"molecule": "Cc1nc2ccc(Cl)cn2c1-c1csc(Nc2cccc(Cl)c2)n1", "note": "[Cpd 213, 4-(6-chloro-2-methylimidazo[1,2-a]pyridin-3-yl)-N-(3-chlorophenyl)-1,3-thiazol-2-amine]", "IC50": "< 0.5"}
{"molecule": "CCOc1ccc(Nc2nc(-c3c(C)nc4ccc(F)cn34)cs2)cc1", "note": "[Cpd 163, N-(4-ethoxyphenyl)-4-(6-fluoro-2-methylimidazo[1,2-a]pyridin-3-yl)-1,3-thiazol-2-amine]", "IC50": "< 0.5"}
{"molecule": "1-(3-{[4-(6-fluoro-2-methylimidazo[1,2-a]pyridin-3-yl)-1,3-thiazol-2-yl]amino}phenyl)ethanone [Cpd 238]", "IC50": "< 0.5"}
{"molecule": "COc1ccc(Nc2nc(-c3cnc4ccc(Cl)cn34)cs2)cc1", "note": "[Cpd 105, 4-(6-chloroimidazo[1,2-a]pyridin-3-yl)-N-(4-methoxyphenyl)-1,3-thiazol-2-amine]", "IC50": "< 0.5"}
{"molecule": "Cc1nc2ccc(Cl)cn2c1-c1csc(Nc2ccc(Cl)c(Cl)c2)n1", "note": "[Cpd 111, 4-(6-chloro-2-methylimidazo[1,2-a]pyridin-3-yl)-N-(3,4-dichlorophenyl)-1,3-thiazol-2-amine]", "IC50": "< 0.5"}
{"molecule": "Cc1nc2ccccn2c1-c1csc(Nc2ccc(Cl)c(Cl)c2)n1", "note": "[Cpd 198, N-(3,4-dichlorophenyl)-4-(2-methylimidazo[1,2-a]pyridin-3-yl)-1,3-thiazol-2-amine]", "IC50": "< 0.5"}
{"molecule": "Cc1ccc(Nc2nc(-c3c(C)nc4ccc(Cl)cn34)cs2)c(Br)c1", "note": "[Cpd 205, N-(2-bromo-4-methylphenyl)-4-(6-chloro-2-methylimidazo[1,2-a]pyridin-3-yl)-1,3-thiazol-2-amine]", "IC50": "< 0.5"}
{"molecule": "Clc1ccc2ncc(-c3csc(Nc4c(Br)cc(Br)cc4Br)n3)n2c1", "note": "[Cpd 135, 4-(6-chloroimidazo[1,2-a]pyridin-3-yl)-N-(2,4,6-tribromophenyl)-1,3-thiazol-2-amine]", "IC50": "< 0.5"}
{"molecule": "CCCc1nc2ncccn2c1-c1csc(Nc2ccc(I)cc2)n1", "note": "[Cpd 185, N-(4-iodophenyl)-4-(2-propylimidazo[1,2-a]pyrimidin-3-yl)-1,3-thiazol-2-amine]", "IC50": "< 0.5"}
{"molecule": "CCc1nc2ncccn2c1-c1csc(Nc2ccc(Br)cc2)n1", "note": "[Cpd 148, N-(4-bromophenyl)-4-(2-ethylimidazo[1,2-a]pyrimidin-3-yl)-1,3-thiazol-2-amine]", "IC50": "< 0.5"}
{"molecule": "CCN(CC)c1ccc(N(C)c2nccc(-c3c(C)nc4ccccn34)n2)cc1", "note": "[Cpd 138, N,N-diethyl-N′-methyl-N′-[4-(2-methylimidazo[1,2-a]pyridin-3-yl)pyrimidin-2-yl]benzene-1,4-diamine]", "IC50": "< 0.5"}
{"molecule": "CC(=O)c1ccc(Nc2nccc(-c3c(C)nc4ncccn34)n2)cc1", "note": "[Cpd 131, 1-(4-{[4-(2-methylimidazo[1,2-a]pyrimidin-3-yl)pyrimidin-2-yl]amino}phenyl)ethanone]", "IC50": "< 0.5"}
{"molecule": "Cc1nc2ccccn2c1-c1csc(Nc2cccc(O)c2)n1", "note": "[Cpd 35, 3-{[4-(2-methylimidazo[1,2-a]pyridin-3-yl)-1,3-thiazol-2-yl]amino}phenol]", "IC50": "< 0.5"}
{"molecule": "CCOc1ccc(N(C)c2nccc(-c3c(C)nc4ccccn34)n2)cc1", "note": "[Cpd 142, N-(4-ethoxyphenyl)-N-methyl-4-(2-methylimidazo[1,2-a]pyridin-3-yl)pyrimidin-2-amine]", "IC50": "< 0.5"}
{"molecule": "CC(=O)c1ccc(Nc2nc(-c3cnc4ccc(Cl)cn34)cs2)cc1", "note": "[Cpd 107, 1-(4-{[4-(6-chloroimidazo[1,2-a]pyridin-3-yl)-1,3-thiazol-2-yl]amino}phenyl)ethanone]", "IC50": "< 0.5"}
{"molecule": "Brc1cccc(Nc2nccc(-c3cnc4ccccn34)n2)c1", "note": "[Cpd 256, N-(3-bromophenyl)-4-(imidazo[1,2-a]pyridin-3-yl)pyrimidin-2-amine]", "IC50": "< 0.5"}
{"molecule": "Cc1nc2ccc(F)cn2c1-c1csc(Nc2c(Br)cccc2Br)n1", "note": "[Cpd 239, N-(2,6-dibromophenyl)-4-(6-fluoro-2-methylimidazo[1,2-a]pyridin-3-yl)-1,3-thiazol-2-amine]", "IC50": "< 0.5"}
{"molecule": "COc1ccc(Nc2nc(-c3c(C)nc4cc(C)ccn34)cs2)cc1F", "note": "[Cpd 66, 4-(2,7-dimethylimidazo[1,2-a]pyridin-3-yl)-N-(3-fluoro-4-methoxyphenyl)-1,3-thiazol-2-amine]", "IC50": "< 0.5"}
{"molecule": "Cc1ccc(Nc2nc(-c3c(C)nc4cc(C)ccn34)cs2)cc1", "note": "[Cpd 32, 4-(2,7-dimethylimidazo[1,2-a]pyridin-3-yl)-N-(4-methylphenyl)-1,3-thiazol-2-amine]", "IC50": "< 0.5"}
{"molecule": "Cc1ccn2c(-c3csc(Nc4ccc(Cl)cc4)n3)c(C)nc2c1", "note": "[Cpd 65, N-(4-chlorophenyl)-4-(2,7-dimethylimidazo[1,2-a]pyridin-3-yl)-1,3-thiazol-2-amine]", "IC50": "< 0.5"}
{"molecule": "Clc1ccccc1Nc1nccc(-c2cnc3ccccn23)n1", "note": "[Cpd 247, N-(2-chlorophenyl)-4-(imidazo[1,2-a]pyridin-3-yl)pyrimidin-2-amine]", "IC50": "0.5 to 1"}
{"molecule": "Cc1ccc(Nc2nc(-c3c(C)nc4ccc(Cl)cn34)cs2)cc1", "note": "[Cpd 89, 4-(6-chloro-2-methylimidazo[1,2-a]pyridin-3-yl)-N-(4-methylphenyl)-1,3-thiazol-2-amine]", "IC50": "< 0.5"}
{"molecule": "Cc1ccc2nc(C)c(-c3csc(Nc4ccc5c(c4)OCO5)n3)n2c1", "note": "[Cpd 72, N-(1,3-benzodioxol-5-yl)-4-(2,6-dimethylimidazo[1,2-a]pyridin-3-yl)-1,3-thiazol-2-amine]", "IC50": "< 0.5"}
{"molecule": "CCOc1ccc(Nc2nc(-c3c(C)nc4ccc(Cl)cn34)cs2)cc1", "note": "[Cpd 88, 4-(6-chloro-2-methylimidazo[1,2-a]pyridin-3-yl)-N-(4-ethoxyphenyl)-1,3-thiazol-2-amine]", "IC50": "< 0.5"}
{"molecule": "CC(=O)c1ccc(N(C)c2nccc(-c3c(C)nc4ccccn34)n2)cc1", "note": "[Cpd 167, 1-(4-{methyl[4-(2-methylimidazo[1,2-a]pyridin-3-yl)pyrimidin-2-yl]amino}phenyl)ethanone]", "IC50": "< 0.5"}
{"molecule": "CCCc1nc2ncccn2c1-c1csc(Nc2ccccc2)n1", "note": "[Cpd 187, N-phenyl-4-(2-propylimidazo[1,2-a]pyrimidin-3-yl)-1,3-thiazol-2-amine]", "IC50": "< 0.5"}
{"molecule": "Cc1ccc(Nc2nc(-c3c(C)nc4c(C)cccn34)cs2)cc1", "note": "[Cpd 223, 4-(2,8-dimethylimidazo[1,2-a]pyridin-3-yl)-N-(4-methylphenyl)-1,3-thiazol-2-amine]", "IC50": "< 0.5"}
{"molecule": "Cc1nc2ncccn2c1-c1csc(Nc2c(Cl)cccc2Cl)n1", "note": "[Cpd 38, N-(2,6-dichlorophenyl)-4-(2-methylimidazo[1,2-a]pyrimidin-3-yl)-1,3-thiazol-2-amine]", "IC50": "< 0.5"}
